The assay concerns p-IKKa levels in L363 (NIK translocated multiple myeloma) cells. The experiment in a line: Assay 2: Effect of compounds on p-IKKa levels in L363 (NIK translocated multiple myeloma) cells. The conditions noted are these: Homo sapiens, L-363, 6 h, read-out: Assay 2 IC50 (nM), p-IKKa (Ser 176/180) in BAFF stimulated L363 cells with MG132, 6 h; average if tested more than once. It counts as cell-based. In outline:
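Read-out is p-IKKa Ser176/180 by AlphaLISA SureFire in lysates. Cells were BAFF-primed (250 ng/ml) overnight or left unstimulated, then exposed 6 h at 37 °C to compound with MG132 (10 μM), 0.3% DMSO. IC50 from sigmoidal curve fit, normalized between stimulated and unstimulated controls.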

Structures are written as SMILES.

With `CCOc1nn(C)cc1Nc1nccc(-c2cccc(-c3cc([C@]4(O)CCN(C)C4=O)on3)n2)n1` [Example 55, (R)-3-(3-(6-(2-((3-Ethoxy-1-methyl-1H-pyrazol-4-yl)amino)pyrimidin-4-yl)pyridin-2-yl)isoxazol-5-yl)-3-hydroxy-1-methylpyrrolidin-2-one], the IC50 was below 50 nM. The figure for `CN1CC[C@@](O)(c2cc(-c3cccc(-c4ccnc(Nc5cnn(CC(F)F)c5)n4)n3)no2)C1=O` [Example 56, (R)-3-(3-(6-(2-((1-(2,2-Difluoroethyl)-1H-pyrazol-4-yl)amino)pyrimidin-4-yl)pyridin-2-yl)isoxazol-5-yl)-3-hydroxy-1-methylpyrrolidin-2-one] is below 50 nM; for `Cc1nn(CC(F)F)cc1Nc1nccc(-c2cccc(-c3cc([C@]4(O)CCN(C)C4=O)on3)n2)n1` [Example 57, (R)-3-(3-(6-(2-((1-(2,2-Difluoroethyl)-3-methyl-1H-pyrazol-4-yl)amino)pyrimidin-4-yl)pyridin-2-yl)isoxazol-5-yl)-3-hydroxy-1-methylpyrrolidin-2-one] it is below 50 nM.

For `COc1nn(CC(F)F)cc1Nc1nccc(-c2cccc(-c3cc([C@]4(O)CCN(C)C4=O)on3)n2)n1` [Example 58, (R)-3-(3-(6-(2-((1-(2,2-Difluoroethyl)-3-methoxy-1H-pyrazol-4-yl)amino)pyrimidin-4-yl)pyridin-2-yl)isoxazol-5-yl)-3-hydroxy-1-methylpyrrolidin-2-one], the IC50 was below 50 nM.

For the molecule `CN1CC[C@@](O)(c2cc(-c3cccc(-c4ccnc(Nc5cn(C)nc5OCC(F)(F)F)n4)n3)no2)C1=O` [Example 59, (R)-3-Hydroxy-1-methyl-3-(3-(6-(2-((1-methyl-3-(2,2,2-trifluoroethoxy)-1H-pyrazol-4-yl)amino)pyrimidin-4-yl)pyridin-2-yl)isoxazol-5-yl)pyrrolidin-2-one], the IC50 was below 50 nM. On to `CN1CC[C@@](O)(c2cc(-c3cccc(-c4ccnc(Nc5ccn(CCF)n5)n4)n3)no2)C1=O` [Example 60, (R)-3-(3-(6-(2-((1-(2-Fluoroethyl)-1H-pyrazol-3-yl)amino)pyrimidin-4-yl)pyridin-2-yl)isoxazol-5-yl)-3-hydroxy-1-methylpyrrolidin-2-one], for which the IC50 is below 50 nM. In the case of `CN1CC[C@@](O)(c2cc(-c3cccc(-c4ccnc(Nc5cnn(CCF)c5)n4)n3)no2)C1=O` [Example 61, (R)-3-(3-(6-(2-((1-(2-Fluoroethyl)-1H-pyrazol-4-yl)amino)pyrimidin-4-yl)pyridin-2-yl)isoxazol-5-yl)-3-hydroxy-1-methylpyrrolidin-2-one], the IC50 is below 50 nM.

Take `CN1CC[C@@](O)(c2cc(-c3cccc(-c4ccnc(Nc5cnn(CCN6CCOCC6)c5)n4)n3)no2)C1=O` [Example 62, (R)-3-Hydroxy-1-methyl-3-(3-(6-(2-((1-(2-morpholinoethyl)-1H-pyrazol-4-yl)amino)pyrimidin-4-yl)pyridin-2-yl)isoxazol-5-yl)pyrrolidin-2-one]: the IC50 is below 50 nM. As to `Cc1oncc1Nc1nccc(-c2cccc(-c3cc([C@]4(O)CCN(C)C4=O)on3)n2)n1` [Example 63, (R)-3-Hydroxy-1-methyl-3-(3-(6-(2-((5-methylisoxazol-4-yl)amino)pyrimidin-4-yl)pyridin-2-yl)isoxazol-5-yl)pyrrolidin-2-one], the IC50 was below 50 nM. As for `CN1CC[C@@](O)(c2cc(-c3cccc(-c4ccnc(Nc5cnn(CC(C)(C)O)c5)n4)n3)no2)C1=O` [Example 64, (R)-3-Hydroxy-3-(3-(6-(2-((1-(2-hydroxy-2-methylpropyl)-1H-pyrazol-4-yl)amino)pyrimidin-4-yl)pyridin-2-yl)isoxazol-5-yl)-1-methylpyrrolidin-2-one], the IC50 was below 50 nM.

As for `CN1CC[C@@](O)(c2cc(-c3cccc(-c4ccnc(Nc5cn(C)nn5)n4)n3)no2)C1=O` [Example 65, (R)-3-Hydroxy-1-methyl-3-(3-(6-(2-((1-methyl-1H-1,2,3-triazol-4-yl)amino)pyrimidin-4-yl)pyridin-2-yl)isoxazol-5-yl)pyrrolidin-2-one], the IC50 was 50 to 500 nM. Consider `CN1CC[C@@](O)(c2cc(-c3cccc(-c4ccnc(NC5COC5)n4)n3)no2)C1=O` [Example 66, (R)-3-Hydroxy-1-methyl-3-(3-(6-(2-(oxetan-3-ylamino)pyrimidin-4-yl)pyridin-2-yl)isoxazol-5-yl)pyrrolidin-2-one], for which the IC50 was in the range of 50 to 500 nM. Turning to `CN1CC[C@@](O)(c2cc(-c3cccc(-c4ccnc(NCCC(F)(F)F)n4)c3)no2)C1=O` [Example 71, (R)-3-Hydroxy-1-methyl-3-(3-(3-(2-((3,3,3-trifluoropropyl)amino)pyrimidin-4-yl)phenyl)isoxazol-5-yl)pyrrolidin-2-one], the IC50 was above 500 nM. The figure for `CN1CC[C@@](O)(c2cc(-c3cccc(-c4ccnc(Nc5cnn(C)c5)n4)c3)no2)C1=O` [Example 72, (R)-3-Hydroxy-1-methyl-3-(3-(3-(2-((1-methyl-1H-pyrazol-4-yl)amino)pyrimidin-4-yl)phenyl)isoxazol-5-yl)pyrrolidin-2-one] is above 500 nM; for `[2H]C([2H])([2H])n1cc(Nc2nccc(-c3cccc(-c4cc([C@]5(O)CCN(C)C5=O)on4)n3)n2)cn1` [Example 73, (R)-3-Hydroxy-1-methyl-3-(3-(6-(2-((1-(methyl-d3)-1H-pyrazol-4-yl)amino)pyrimidin-4-yl)pyridin-2-yl)isoxazol-5-yl)pyrrolidin-2-one] it is below 50 nM; for `[2H]C([2H])([2H])C([2H])([2H])n1cc(Nc2nccc(-c3cccc(-c4cc([C@]5(O)CCN(C)C5=O)on4)n3)n2)cn1` [Example 74, (R)-3-(3-(6-(2-((1-(Ethyl-d5)-1H-pyrazol-4-yl)amino)pyrimidin-4-yl)pyridin-2-yl)isoxazol-5-yl)-3-hydroxy-1-methylpyrrolidin-2-one] it is below 50 nM. The figure for `CN1CC[C@@](O)(c2cn(-c3cccc(-c4ccnc(Nc5ccn(C)n5)n4)n3)nn2)C1=O` [Example 75, (R)-3-Hydroxy-1-methyl-3-(1-(6-(2-((1-methyl-1H-pyrazol-3-yl)amino)pyrimidin-4-yl)pyridin-2-yl)-1H-1,2,3-triazol-4-yl)pyrrolidin-2-one] is below 50 nM; for `CN1CC[C@@](O)(c2cc(-c3cccc(-c4ccnc(Nc5cncc(F)c5)n4)n3)no2)C1=O` [Example 86, (R)-3-(3-(6-(2-((5-Fluoropyridin-3-yl)amino)pyrimidin-4-yl)pyridin-2-yl)isoxazol-5-yl)-3-hydroxy-1-methylpyrrolidin-2-one] it is below 50 nM; for `CN1CC[C@@](O)(c2cc(-c3cccc(-c4ccnc(Nc5cnn(C6CCNC6)c5)n4)n3)no2)C1=O` (stereo partly drawn) [Example 90, (3R)-3-Hydroxy-1-methyl-3-(3-(6-(2-((1-(pyrrolidin-3-yl)-1H-pyrazol-4-yl)amino)pyrimidin-4-yl)pyridin-2-yl)isoxazol-5-yl)pyrrolidin-2-one] it is 50 to 500 nM. For `CCn1cc(Nc2nccc(-c3cccc(-c4cc([C@]5(O)CCN(C)C5=O)no4)n3)n2)cn1` [Example 91, (R)-3-(5-(6-(2-((1-Ethyl-1H-pyrazol-4-yl)amino)pyrimidin-4-yl)pyridin-2-yl)isoxazol-3-yl)-3-hydroxy-1-methylpyrrolidin-2-one], the IC50 was below 50 nM.

As to `C[C@@H]1C[C@@](O)(c2cc(-c3cccc(-c4ccnc(Nc5ccn(C)n5)n4)n3)no2)C(=O)N1C` [Example 92, (3R,5R)-3-Hydroxy-1,5-dimethyl-3-(3-(6-(2-((1-methyl-1H-pyrazol-3-yl)amino)pyrimidin-4-yl)pyridin-2-yl)isoxazol-5-yl)pyrrolidin-2-one], the IC50 fell in the range of 50 to 500 nM.

As to `CN1C(=O)[C@](O)(c2cc(-c3cccc(-c4ccnc(Nc5ccn(C)n5)n4)n3)no2)[C@H]2C[C@H]21` [Example 93, (1R,4R,5S)-4-Hydroxy-2-methyl-4-(3-(6-(2-((1-methyl-1H-pyrazol-3-yl)amino)pyrimidin-4-yl)pyridin-2-yl)isoxazol-5-yl)-2-azabicyclo[3.1.0]hexan-3-one], the IC50 fell in the range of 50 to 500 nM.

For the molecule `CN1CC(F)(F)[C@@](O)(c2cc(-c3cncc(-c4ccnc(Nc5ccn(C)n5)n4)n3)no2)C1=O` [Example 94, (R)-4,4-Difluoro-3-hydroxy-1-methyl-3-(3-(6-(2-((1-methyl-1H-pyrazol-3-yl)amino)pyrimidin-4-yl)pyrazin-2-yl)isoxazol-5-yl)pyrrolidin-2-one], the IC50 lay in the range of 50 to 500 nM.

For the molecule `CN1CC[C@@](O)(c2cc(-c3cncc(-c4ccnc(Nc5ccn(C)n5)n4)n3)no2)C1=O` [Example 95, (R)-3-Hydroxy-1-methyl-3-(3-(6-(2-((1-methyl-1H-pyrazol-3-yl)amino)pyrimidin-4-yl)pyrazin-2-yl)isoxazol-5-yl)pyrrolidin-2-one], the IC50 lay within 50 to 500 nM. With `CN1CC[C@@](O)(c2cnn(-c3cccc(-c4ccnc(Nc5cn(CC(F)F)nc5OC5CC5)n4)n3)c2)C1=O` [Example 97, (R)-3-(1-(6-(2-((3-Cyclopropoxy-1-(2,2-difluoroethyl)-1H-pyrazol-4-yl)amino)pyrimidin-4-yl)pyridin-2-yl)-1H-pyrazol-4-yl)-3-hydroxy-1-methylpyrrolidin-2-one], the IC50 was in the range of 50 to 500 nM.

As for `CN1CC[C@@](O)(c2cnn(-c3cccc(-c4ccnc(Nc5cnn6ccccc56)n4)n3)c2)C1=O` [Example 98, (R)-3-Hydroxy-1-methyl-3-(1-(6-(2-(pyrazolo[1,5-a]pyridin-3-ylamino)pyrimidin-4-yl)pyridin-2-yl)-1H-pyrazol-4-yl)pyrrolidin-2-one], the IC50 was 50 to 500 nM.

On to `Cc1cc(-c2cc([C@]3(O)CCN(C)C3=O)on2)nc(-c2ccnc(Nc3cnn(C)c3)n2)c1` [Example 99, (R)-3-Hydroxy-1-methyl-3-(3-(4-methyl-6-(2-((1-methyl-1H-pyrazol-4-yl)amino)pyrimidin-4-yl)pyridin-2-yl)isoxazol-5-yl)pyrrolidin-2-one], for which the IC50 is below 50 nM.

Source of the values: patent US20250282768A1 (Janssen Pharmaceutica NV, priority 2022, published 2025).
